Data published in the supplement of paper PMC10733146.

Tests used:
Assay in all cases: viability relative to DMSO control (fraction); higher = less drug effect (more viable cells)
Details in all cases: 48 h
[1] = tested on: primary T-PLL patient cells (S008)
Outline: (§1)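 The cells were primary mononuclear tumour cells, either fresh or cryopreserved, isolated by Ficoll from blood or bone marrow or derived from processed lymph node. Each well of a 384-well plate received 4 × 10^4 cells onto compounds pre-plated at five concentrations, with one well per concentration. The medium was RPMI-1640 with penicillin/streptomycin, L-glutamine and human serum, and plates stood at 37 °C and 5% CO2 for 48 h. Viability is reported as CellTiter-Glo luminescence relative to the median of 16 inner DMSO wells.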

[2] = tested on: primary AML patient cells (S081)
Outline: as §1

[3] = tested on: primary AML patient cells (S006)
Outline: as §1

[4] = tested on: primary CLL patient cells (S031)
Outline: as §1

[5] = tested on: primary AML patient cells (S011)
Outline: as §1

[6] = tested on: primary CLL patient cells (S043)
Outline: as §1

[7] = tested on: primary MCL patient cells (S041)
Outline: as §1

[8] = tested on: primary BL patient cells (S005)
Outline: as §1

[9] = tested on: primary AML patient cells (S012)
Outline: as §1

[10] = tested on: primary MCL patient cells (S068)
Outline: as §1

[11] = tested on: primary MCL patient cells (S063)
Outline: as §1

[12] = tested on: primary AML patient cells (S037)
Outline: as §1

[13] = tested on: primary AML patient cells (S056)
Outline: as §1

[14] = tested on: primary AML patient cells (S085)
Outline: as §1

CC1(COc2ccc3c(c2)ncn3-c2ccc3cccc(N4CCC(N)CC4)c3n2)COC1 [Crenolanib]
viability ([1]; 0.016 µM): 0.989
viability ([1]; 0.08 µM): 1.04
viability ([1]; 0.4 µM): 1.06
viability ([1]; 2 µM): 1.07
viability ([1]; 10 µM): 0.107
viability ([2]; 0.016 µM): 0.948
viability ([2]; 0.08 µM): 1.09
viability ([2]; 0.4 µM): 0.953
viability ([2]; 2 µM): 1.07
viability ([2]; 10 µM): 0.0325
viability ([3]; 0.016 µM): 0.559
viability ([3]; 0.08 µM): 0.649
viability ([3]; 0.4 µM): 0.889
viability ([3]; 2 µM): 0.977
viability ([3]; 10 µM): 0.333
viability ([4]; 0.016 µM): 1.09
viability ([4]; 0.08 µM): 1.13
viability ([4]; 0.4 µM): 1.02
viability ([4]; 2 µM): 0.305
viability ([4]; 10 µM): 0.0182
viability ([5]; 0.016 µM): 1.14
viability ([5]; 0.08 µM): 0.997
viability ([5]; 0.4 µM): 1.02
viability ([5]; 2 µM): 0.824
viability ([5]; 10 µM): 0.0337
viability ([6]; 0.016 µM): 0.963
viability ([6]; 0.08 µM): 1.15
viability ([6]; 0.4 µM): 1.17
viability ([6]; 2 µM): 1.06
viability ([6]; 10 µM): 0.0329
viability ([7]; 0.016 µM): 1.08
viability ([7]; 0.08 µM): 1.07
viability ([7]; 0.4 µM): 0.983
viability ([7]; 2 µM): 0.447
viability ([7]; 10 µM): 0.0254
viability ([8]; 0.016 µM): 0.9
viability ([8]; 0.08 µM): 0.959
viability ([8]; 0.4 µM): 0.896
viability ([8]; 2 µM): 0.913
viability ([8]; 10 µM): 0.414
viability ([9]; 0.016 µM): 0.935
viability ([9]; 0.08 µM): 0.964
viability ([9]; 0.4 µM): 0.978
viability ([9]; 2 µM): 0.959
viability ([9]; 10 µM): 0.528
viability ([10]; 0.016 µM): 0.812
viability ([10]; 0.08 µM): 0.846
viability ([10]; 0.4 µM): 0.572
viability ([10]; 2 µM): 0.417
viability ([10]; 10 µM): 0.031
viability ([11]; 0.016 µM): 1.08
viability ([11]; 0.08 µM): 1.13
viability ([11]; 0.4 µM): 0.958
viability ([11]; 2 µM): 0.83
viability ([11]; 10 µM): 0.0336
viability ([12]; 0.016 µM): 1.06
viability ([12]; 0.08 µM): 1.09
viability ([12]; 0.4 µM): 1.04
viability ([12]; 2 µM): 0.811
viability ([12]; 10 µM): 0.572
viability ([13]; 0.016 µM): 0.613
viability ([13]; 0.08 µM): 1.35
viability ([13]; 0.4 µM): 0.631
viability ([13]; 2 µM): 0.73
viability ([13]; 10 µM): 0.157
viability ([14]; 0.016 µM): 1.13
viability ([14]; 0.08 µM): 1.3
viability ([14]; 0.4 µM): 2.22
viability ([14]; 2 µM): 1.82
viability ([14]; 10 µM): 0.0652
